Biological target: T1, Der p 1 allergen (Dermatophagoides pteronyssinus, UniProt P08176)
T1 sequence (P08176 99-320): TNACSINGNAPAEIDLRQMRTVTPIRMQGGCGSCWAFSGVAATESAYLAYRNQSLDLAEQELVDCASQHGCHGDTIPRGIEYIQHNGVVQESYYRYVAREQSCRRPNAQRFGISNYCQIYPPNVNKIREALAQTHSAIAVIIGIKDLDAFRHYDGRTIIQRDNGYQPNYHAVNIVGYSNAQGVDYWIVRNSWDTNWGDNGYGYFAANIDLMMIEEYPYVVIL
Assay: ELISA method for Der p 1 Allergen (level of allergen recovered after exposure to active)
Assay type: biochemical
Conditions: 10 min exposure to Ag, 62.5 ng/ml Ag in plate
Procedure: Several samples were tested using a standard Enzyme Linked Immunosorbent Assay, (ELISA). The ELISA method for Der p 1 Allergen was utilized. Der p 1 allergen is a standardized allergen. The ELISA method provides quantitative results correlating to the level of allergen recovered in the test.
In the ELISA method for Der p 1 Allergen, the coating antibody is Anti-Der p1 mAb 5H8, supplied as a HPLC purified stock solution at 2 mg/ml in phosphate buffered saline. The coating antibody was diluted in coating buffer (12 μl in 12 ml). 100 μl of the diluted coating antibody was dispensed in each well. The plate was held overnight at 4° C. Then the coating antibody was dumped from the plate and the plate was blotted dry. The well was washed 3 times with PBS-T and blotted dry. Next, 100 μl per well of blocking buffer (BSA PBS-T) was added and incubated for 30 minutes at room temperature. A standard curve (doubling dilutions between 250-0.5 ng/ml) was prepared. The experimental samples were prepared. “Controls” are actives exposed to the plate before addition of Ag. The exposure time was 1 hour. The Ag level used in the plate was 62.5 ng/ml as is for the Ag level in the active. “Samples” are Actives exposed to Ag before addition to the plate. Exposure time was 10 minutes before incubation in the plate for 1 hour. Actives were used in 1:1 ratio with 125 ng/ml Ag (yield 62.5 ng/ml Ag in test plate).
The plate was then washed, filled with standards, blanks, controls and samples and incubated for 1 hour. The detecting antibody was prepared. Next, the plate was washed and the detecting antibody was added to each well. The conjugate was prepared. The plate was washed and the conjugate was added. Just before washing the conjugate from the plate, H2O2 was added to the substrate solution. The plate was washed and the substrate was added. The plate was read when the absorbance of 250 ng/ml antigen standard (at 405 nm) reached 2.0-2.4.
The active levels in the table are listed in ppm and are diluted in half by antigen during testing.

[1] = diluent water, active 10,000 ppm (diluted in half by antigen during testing)
[2] = diluent water, active 15,000 ppm (diluted in half by antigen during testing)

CC(=O)C1C(=O)C=C(C)OC1=O (stereo not drawn) [dehydroacetic acid]
% Reduction (diluent ethoxylated alcohol, active 2,500 ppm (diluted in half by antigen during testing)): 100%

CC(O)C(=O)O (stereo not drawn) [lactic acid]
% Reduction (diluent water, active 3,500 ppm (diluted in half by antigen during testing)): 95%

O=C(O)CC(O)(CC(=O)O)C(=O)O [citric acid]
% Reduction (diluent water, active 5,000 ppm (diluted in half by antigen during testing)): 100%

O=C1O[C@H]([C@H](O)CO)C(O)=C1O [erythorbic acid]
% Reduction [1]: 96%

O=C([O-])[O-].[Na+].[Na+] [sodium carbonate]
% Reduction (diluent water, active 2,500 ppm (diluted in half by antigen during testing)): 100%

O=C1O[C@H]([C@@H](O)CO)C(O)=C1O [ascorbic acid]
% Reduction [1]: 91%

CCCCCCCCCCCCN(CCCN)CCCN [N,N-bis(3-aminopropyl) dodecylamine]
% Reduction [2]: 99% | % Reduction (diluent water, active 50,000 ppm (diluted in half by antigen during testing)): 100%

O=C([O-])CN(CCN(CC(=O)[O-])CC(=O)[O-])CC(=O)[O-].[Na+].[Na+].[Na+].[Na+] [tetrasodium ethylene diamine tetraacetate]
% Reduction [2]: 91%

Source: US20050054702A1, “Method of controlling allergens” (Lonza Inc., priority 2003, published 2005)
